Measurements: BindingDB's records for doi:10.1021/jm970640l (University of Versailles Saint-Quentin-en-Yvelines, 1998)

Experiment: Inhibitory activity against hydrolysis of Gly-Pro-pNa by Dipeptidyl peptidase IV purified from CD26-negative C8166 cells

IC50: 630 nM
Compound: CCCCCCCC[S+](CCCCCCCC)Cc1ccc2cc1C(=O)NCC(=O)NCC(=O)NCCCC[C@H](N)C(=O)N1CCC[C@H]1C(=O)N2 [Cyclo(Lys(alphaH2+)-Pro-Aba-[CH2SOct2-]-Gly2-), 2CF3COO-]
